{
  "source": "patent US20060160906A1",
  "about": "“Polyamine analogs as therapeutic agents for ocular diseases” (priority 2004, published 2006)",
  "key": {"[1]": {"tested_on": "choroidal neovascularization (CNV) at Bruch's membrane rupture sites", "assay": "Mouse model of laser-induced choroidal neovascularization (rupture of Bruch's membrane), CNV area on choroidal flat mounts", "assay_type": "in vivo, C57BL/6J mice", "conditions": "for amount of established CNV on day 14 vs vehicle and day 7 baseline (regression): single periocular injection at day 7; for amount of CNV on day 14 vs vehicle (suppression): single periocular injection at time of rupture"}, "[2]": {"tested_on": "retinal neovascularization", "assay": "Oxygen-induced ischemic retinopathy, retinal neovascularization", "assay_type": "in vivo, neonatal C57BL/6 mice", "conditions": "100 μg CGC-11144, 1 mg CGC-11047, 750 μg CGC-11093; for amount of retinal neovascularization at P20 vs vehicle (regression): daily periocular injections P17 to P20; for amount of retinal neovascularization at P17 vs vehicle (suppression): periocular injection at P12", "protocol": "Ischemic retinopathy can be produced in neonatal C57BL/6 mice as described (Smith, L. E et al., Invest. Opthalmol. Vis. Sci. 35: 101-111 (1994)) and serves as a model for retinopathy of prematurity (ROP). Post-natal day 7 (P7) mice and their mothers were placed in an airtight incubator and exposed to an atmosphere of 75±3% oxygen for 5 days. Incubator temperature was maintained at 23±2° C. and oxygen was continuously monitored with a PROOX model 110 oxygen controller (Reming Bioinstruments Co., Redfield, N.Y.). At post-natal day 12, mice were placed back in room air and were given a periocular injection of 3 μl containing 100 μg of CGC-11144 (n=4), 1 mg of CGC-11047 (n=4), 750 μg of CGC-11093 (n=4) or vehicle. On post-natal day 17 (P17) the treated and control mice were euthanized and the amount of retinal neovascularization was measured.\nFor measurement of retinal neovascularization, eyes were removed and fixed in 2% paraformaldehyde in phosphate buffered saline (PBS) for one hour and rinsed twice in 25% sucrose in PBS. Specimens were incubated in 25% sucrose in PBS overnight and embedded in OCT compound (Miles Diagnostics, Elkhart, Ind.),). 10 μm frozen sections were post-fixed for 15 minutes in 0.5% glutaraldehyde in PBS and washed in PBS. Sections were also histochemically stained with biotinylated Griffonia simplicifolia lectin B4 (GSA, Vector Laboratories, Burlingame, Calif.), which selectively binds to vascular cells. Slides were incubated in methanol/H2O2 for 10 minutes at 4° C., washed with 0.05 M Tris-buffered saline, pH 7.6 (TBS), and incubated for 30 minutes in 10% normal porcine serum. Slides were incubated 2 hours at room temperature with biotinylated GSA and after rinsing with 0.05M TBS, they were incubated with avidin coupled to peroxidase (Vector Laboratories, Burlingame, Calif.) for 30 minutes at room temperature. After being washed for 10 minutes with 0.05M TBS, slides were incubated with diaminobenzidine (Research Genetics, Huntsville, Ala.) to give a brown reaction product.\nTo perform quantitative assessments, 10 μm frozen serial sections were cut from the iris root on one side of the eye to the iris root on the opposite side of the eye and every tenth section was stained with GSA. Retinas were examined with an Axioskop microscope and images were digitized using a 3 CCD color video camera and a frame grabber. Image-Pro Plus software was used to delineate GSA-stained vascular cells above the internal limiting membrane and the total area of staining was measured.\nTo investigate the effect of these agents on regression of retinal neovascularization, ischemic retinopathy was induced and left untreated until P17, when the baseline amount of retinal neovascularization was measured in one group of mice. From post-natal days 17 to 20 (P17 to P20) the remainder of the mice were given daily periocular injections of 100 μg of CGC-11144 (n=4), 1 mg of CGC-11047 (n=4), 750 μg of CGC-11093 (n=4) or vehicle. On P20 the mice were euthanized and the amount of retinal neovascularization in the treated and control mice was measured as described above."}, "[3]": {"tested_on": "subretinal neovascularization", "assay": "Rhodopsin/VEGF transgenic mice, subretinal neovascularization", "assay_type": "in vivo, rhodopsin/VEGF transgenic mice (V6 mice)", "conditions": "periocular injection at P7, measured P21; 100 μg CGC-11144, 1 mg CGC-11047, 750 μg CGC-11093", "source_text": "Transgenic mice (V6 mice) in which the rhodopsin promoter drives expression of VEGF165 in photoreceptors have onset of VEGF expression at post-natal day 7 (P7) and soon after begin to develop neovascularization originating from the deep capillary bed that grows through the photoreceptor layer into the subretinal space. (Okamoto N et al., Amer. J. Pathol. 151: 281-91 (1997); Tobe T et al., Invest. Ophthalmol. Vis. Sci. 39: 180-188 (1998)). Hemizygous transgene positive mice were given a periocular injection of 100 μg of CGC-11144 (n=3), 1 mg of CGC-11047 (n=3), 750 μg of CGC-11093 (n=3) or vehicle (n=7) at P7. At post-natal day 21 (P21), mice were euthanized and the amount of subretinal neovascularization was quantified as previously described (Tobe, ibid.). Briefly, mice were anesthetized, perfused with fluorescein-labeled dextran, and the number of neovascular lesions on the outer surface of the retina and their total area were measured on retinal flat mounts by image analysis as described in Example 1."}, "[4]": {"conditions": "2 mg CGC-11047, 1.5 mg CGC-11093"}, "[5]": {"conditions": "200 μg CGC-11144, 2 mg CGC-11047, 1.5 mg CGC-11093"}, "[6]": {"conditions": "single periocular injection one week prior to rupture, 200 μg CGC-11144, 2 mg CGC-11047, 1.5 mg CGC-11093"}, "[7]": {"conditions": "single periocular injection three weeks before laser, 2 mg CGC-11047, 1.5 mg CGC-11093"}, "[8]": {"conditions": "single periocular injection two weeks prior to rupture, 200 μg CGC-11144, 2 mg CGC-11047, 1.5 mg CGC-11093"}},
  "note": "Entries after “also recorded” stand apart in the source; their conditions may differ.",
  "data": [
    {"compound": "CCNCCCCNCC1CC1CNCCCCNCC", "note": "(centres unmarked) [CGC-11093]", "values": [
      {"measurement": "amount of established CNV on day 14 vs vehicle and day 7 baseline (regression)", "setting": "[1]; [4]", "result": "less CNV than those treated with vehicle and less than the baseline amount of CNV"},
      {"measurement": "amount of CNV on day 14 vs vehicle (suppression)", "setting": "[1]; [5]", "result": "significantly reduced the amount of CNV"},
      {"measurement": "amount of CNV vs vehicle (duration of effect)", "setting": "[1]; [6]", "result": "significant reduction of the amount of CNV"},
      {"measurement": "amount of CNV vs vehicle (duration of effect)", "setting": "[1]; [7]", "result": "no significant effect"},
      {"measurement": "amount of CNV vs vehicle (duration of effect)", "setting": "[1]; [8]", "result": "significantly smaller amounts of CNV"},
      {"measurement": "amount of retinal neovascularization at P20 vs vehicle (regression)", "setting": "[2]", "result": "significantly less neovascularization"},
      {"measurement": "amount of retinal neovascularization at P17 vs vehicle (suppression)", "setting": "[2]", "result": "significantly less"},
      {"measurement": "subretinal neovascularization vs vehicle", "setting": "[3]", "result": "significantly less subretinal neovascularization"}
    ]},
    {"compound": "NCCCC(N)(C(=O)O)C(F)F", "note": "(racemic) [DFMO, D,L-α-difluoromethyl-omithine, reference compound]", "values": [
      {"measurement": "area of CNV vs day 7 baseline and vehicle fellow eyes (regression)", "setting": "[1]; daily periocular injections days 7 to 14, 200 μg CGC-11144, 100 μg DFMO, or both", "result": "significant reduction in the area of CNV; also recorded: significantly less"}
    ]},
    {"compound": "CCNCCCNC/C=C\\CNCCCNCC", "note": "[CGC-11047]", "values": [
      {"measurement": "amount of established CNV on day 14 vs vehicle and day 7 baseline (regression)", "setting": "[1]; [4]", "result": "less CNV than those treated with vehicle and less than the baseline amount of CNV"},
      {"measurement": "amount of CNV on day 14 vs vehicle (suppression)", "setting": "[1]; [5]", "result": "significantly reduced the amount of CNV"},
      {"measurement": "amount of CNV vs vehicle (duration of effect)", "setting": "[1]; [6]", "result": "significant reduction of the amount of CNV"},
      {"measurement": "amount of CNV vs vehicle (duration of effect)", "setting": "[1]; [7]", "result": "no significant effect"},
      {"measurement": "amount of CNV vs vehicle (duration of effect)", "setting": "[1]; [8]", "result": "significantly smaller amounts of CNV"},
      {"measurement": "amount of retinal neovascularization at P20 vs vehicle (regression)", "setting": "[2]", "result": "significantly less neovascularization"},
      {"measurement": "amount of retinal neovascularization at P17 vs vehicle (suppression)", "setting": "[2]", "result": "significantly less"},
      {"measurement": "subretinal neovascularization vs vehicle", "setting": "[3]", "result": "significantly less subretinal neovascularization"}
    ]}
  ]
}
